From patent US20260053171A1, “METHANOGEN INHIBITORS” (AGRIZERONZ LIMITED PARTNERSHIP, priority 2022, published 2026) come the findings set out here.

This test has as its system methane production in rumen fluid. As to the kind of experiment: Rumen in vitro (RIV) assay, methane production from rumen fluid incubations. It is filed as cell-based, cattle. To be noted: Bos taurus, read-out: RIV % methane reduction +/− SD. A digest of the protocol:
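Rumen fluid from two fistulated cattle diluted 12 ml in 48 ml buffer with ryegrass substrate, incubated in sealed bottles at 39° C for 24-48 h in duplicate. Inhibitors added in DMF (stocks 1000-fold above highest assay level); total gas, methane and H2 measured automatically; 30 μM BES positive control, no-inhibitor negative control.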

Where only a bound is given, the exact number is not on record here.

Consider `O=C(O)CCC(=O)N1N=C(c2ccc3nccnc3c2)CC1c1ccc(Cl)cc1` (centres unmarked) [Compound 77, 4-(5-(4-Chlorophenyl)-3-(quinoxalin-6-yl)-4,5-dihydro-1H-pyrazol-1-yl)-4-oxobutanoic acid], for which the inhibition at 50 µM turned out to be 77 ± 0.4%. In the case of `CCCOc1ccc(-c2ccc(C3=NN(C(=O)CCC(=O)O)C(c4ccc5nccnc5c4)C3)cc2)cc1` (centres unmarked) [Compound 78, 4-Oxo-4-(3-(4′-propoxy-[1,1′-biphenyl]-4-yl)-5-(quinoxalin-6-yl)-4,5-dihydro-1H-pyrazol-1-yl)butanoic acid], the inhibition at 2 µM is 39.8 ± 18.5% and the inhibition at 10 µM was determined as 88.8 ± 2%. As for `CCOc1ccc(-c2ccc(C3=NN(C(=O)CCC(=O)O)C(c4ccc5nccnc5c4)C3)cc2)cc1` (centres unmarked) [Compound 79, 4-(3-(4′-Ethoxy-[1,1′-biphenyl]-4-yl)-5-(quinoxalin-6-yl)-4,5-dihydro-1H-pyrazol-1-yl)-4-oxobutanoic acid], the inhibition at 2 µM was 25.2 ± 2.5% and the inhibition at 10 µM stood at 81.5 ± 0.1%. For `CCCCOc1ccc(-c2ccc(C3=NN(C(=O)CCC(=O)O)C(c4ccc5nccnc5c4)C3)cc2)cc1` (centres unmarked) [Compound 80, 4-(3-(4′-Butoxy-[1,1′-biphenyl]-4-yl)-5-(quinoxalin-6-yl)-4,5-dihydro-1H-pyrazol-1-yl)-4-oxobutanoic acid], the inhibition at 2 µM came out at 21.9 ± 4.3% and the inhibition at 10 µM was found to be 89.4 ± 2.5%.

Turning to `CC(C)(C)Oc1ccc(-c2ccc(C3=NN(C(=O)CCC(=O)O)C(c4ccc5nccnc5c4)C3)cc2)cc1` (centres unmarked) [Compound 81, 4-(3-(4′-(tert-Butoxy)-[1,1′-biphenyl]-4-yl)-5-(quinoxalin-6-yl)-4,5-dihydro-1H-pyrazol-1-yl)-4-oxobutanoic acid], the inhibition at 10 µM was determined as 29.8 ± 17.8%. On to `CC(C)COc1ccc(-c2ccc(C3=NN(C(=O)CCC(=O)O)C(c4ccc5nccnc5c4)C3)cc2)cc1` (centres unmarked) [Compound 82, 4-(3-(4′-Isobutoxy-[1,1′-biphenyl]-4-yl)-5-(quinoxalin-6-yl)-4,5-dihydro-1H-pyrazol-1-yl)-4-oxobutanoic acid], for which the inhibition at 2 µM was determined as 9.3 ± 7.6% and the inhibition at 10 µM was 75.7 ± 4.6%. As to `CCC(C)Oc1ccc(-c2ccc(C3=NN(C(=O)CCC(=O)O)C(c4ccc5nccnc5c4)C3)cc2)cc1` (centres unmarked) [Compound 83, 4-(3-(4′-(sec-Butoxy)-[1,1′-biphenyl]-4-yl)-5-(quinoxalin-6-yl)-4,5-dihydro-1H-pyrazol-1-yl)-4-oxobutanoic acid], the inhibition at 2 µM is less than 5% and the inhibition at 10 µM was determined as 69.2 ± 1.8%. As for `O=C(O)CCC(=O)N1N=C(c2ccc(-c3ccc(OC4CC4)cc3)cc2)CC1c1ccc2nccnc2c1` (centres unmarked) [Compound 84, 4-(3-(4′-Cyclopropoxy-[1,1′-biphenyl]-4-yl)-5-(quinoxalin-6-yl)-4,5-dihydro-1H-pyrazol-1-yl)-4-oxobutanoic acid], the inhibition at 2 µM worked out at 9.8 ± 1% and the inhibition at 10 µM was determined as 75.1 ± 4.2%.

With `O=C(O)CCC(=O)N1N=C(c2ccc(-c3ccc(OC4CCCC4)cc3)cc2)CC1c1ccc2nccnc2c1` (centres unmarked) [Compound 85, 4-(3-(4′-(Cyclopentyloxy)-[1,1′-biphenyl]-4-yl)-5-(quinoxalin-6-yl)-4,5-dihydro-1H-pyrazol-1-yl)-4-oxobutanoic acid], the inhibition at 2 µM turned out to be 17.9 ± 7.3% and the inhibition at 10 µM is 71.8 ± 4.5%. Take `CC(C)Cc1ccc(-c2ccc(C3=NN(C(=O)CCC(=O)O)C(c4ccc5nccnc5c4)C3)cc2)cc1` (centres unmarked) [Compound 86, 4-(3-(4′-Isobutyl-[1,1′-biphenyl]-4-yl)-5-(quinoxalin-6-yl)-4,5-dihydro-1H-pyrazol-1-yl)-4-oxobutanoic acid]: the inhibition at 10 µM was determined as 29 ± 8.6%. Regarding `CC(C)(C)c1ccc(-c2ccc(C3=NN(C(=O)CCC(=O)O)C(c4ccc5nccnc5c4)C3)cc2)cc1` (centres unmarked) [Compound 87, 4-(3-(4′-(tert-Butyl)-[1,1′-biphenyl]-4-yl)-5-(quinoxalin-6-yl)-4,5-dihydro-1H-pyrazol-1-yl)-4-oxobutanoic acid], the inhibition at 10 µM was 6 ± 0.5%. As for `O=C(O)CCC(=O)N1N=C(c2ccc(-c3ccc(CC(F)(F)F)cc3)cc2)CC1c1ccc2nccnc2c1` (centres unmarked) [Compound 88, 4-Oxo-4-(5-(quinoxalin-6-yl)-3-(4′-(2,2,2-trifluoroethyl)-[1,1′-biphenyl]-4-yl)-4,5-dihydro-1H-pyrazol-1-yl)butanoic acid], the inhibition at 2 µM was less than 5% and the inhibition at 10 µM was 83 ± 1.1%. As for `COCc1ccc(-c2ccc(C3=NN(C(=O)CCC(=O)O)C(c4ccc5nccnc5c4)C3)cc2)cc1` (centres unmarked) [Compound 89, 4-(3-(4′-(Methoxymethyl)-[1,1′-biphenyl]-4-yl)-5-(quinoxalin-6-yl)-4,5-dihydro-1H-pyrazol-1-yl)-4-oxobutanoic acid], the inhibition at 10 µM turned out to be 21.9 ± 7% and the inhibition at 50 µM turned out to be 85 ± 1.7%. For `COc1cccc(-c2ccc(C3=NN(C(=O)CCC(=O)O)C(c4ccc5nccnc5c4)C3)cc2)c1` (centres unmarked) [Compound 90, 4-(3-(3′-Methoxy-[1,1′-biphenyl]-4-yl)-5-(quinoxalin-6-yl)-4,5-dihydro-1H-pyrazol-1-yl)-4-oxobutanoic acid] the same measures were 6.9 ± 2.2% and 84.2%.

Consider `COCCOc1ccc(-c2ccc(C3=NN(C(=O)CCC(=O)O)C(c4ccc5nccnc5c4)C3)cc2)cc1` (centres unmarked) [Compound 91, 4-(3-(4′-(2-Methoxyethoxy)-[1,1′-biphenyl]-4-yl)-5-(quinoxalin-6-yl)-4,5-dihydro-1H-pyrazol-1-yl)-4-oxobutanoic acid], for which the inhibition at 2 µM is less than 5% and the inhibition at 10 µM worked out at 73.2 ± 2.8%.

As for `O=C(O)CCC(=O)N1N=C(c2ccc(-c3ccc(OCC(F)(F)F)cc3)cc2)CC1c1ccc2nccnc2c1` (centres unmarked) [Compound 92, 4-Oxo-4-(5-(quinoxalin-6-yl)-3-(4′-(2,2,2-trifluoroethoxy)-[1,1′-biphenyl]-4-yl)-4,5-dihydro-1H-pyrazol-1-yl)butanoic acid], the inhibition at 2 µM came out at 32.1 ± 0.8% and the inhibition at 10 µM came to 81.4 ± 3.1%. Turning to `CC(C)Sc1ccc(-c2ccc(C3=NN(C(=O)CCC(=O)O)C(c4ccc5nccnc5c4)C3)cc2)cc1` (centres unmarked) [Compound 93, 4-(3-(4′-(Isopropylthio)-[1,1′-biphenyl]-4-yl)-5-(quinoxalin-6-yl)-4,5-dihydro-1H-pyrazol-1-yl)-4-oxobutanoic acid], the inhibition at 10 µM came to 49.1 ± 10.8%. Regarding `O=C(O)CCC(=O)N1N=C(c2ccc(-c3ccc(SC(F)(F)F)cc3)cc2)CC1c1ccc2nccnc2c1` (centres unmarked) [Compound 94, 4-Oxo-4-(5-(quinoxalin-6-yl)-3-(4′-((trifluoromethyl)thio)-[1,1′-biphenyl]-4-yl)-4,5-dihydro-1H-pyrazol-1-yl)butanoic acid], the inhibition at 10 µM was 32.7 ± 1.2%. On the same count and under the same terms, the figure for `CN(C)c1ccc(-c2ccc(C3=NN(C(=O)CCC(=O)O)C(c4ccc5nccnc5c4)C3)cc2)cc1` (centres unmarked) [Compound 95, 4-(3-(4′-(Dimethylamino)-[1,1′-biphenyl]-4-yl)-5-(quinoxalin-6-yl)-4,5-dihydro-1H-pyrazol-1-yl)-4-oxobutanoic acid] is 68.3 ± 2.1%. For the compound `O=C(O)CCC(=O)N1N=C(c2ccc(-c3ccc(N4CCCCC4)cc3)cc2)CC1c1ccc2nccnc2c1` (centres unmarked) [Compound 96, 4-Oxo-4-(3-(4′-(piperidin-1-yl)-[1,1′-biphenyl]-4-yl)-5-(quinoxalin-6-yl)-4,5-dihydro-1H-pyrazol-1-yl)butanoic acid], the inhibition at 10 µM worked out at 8.2 ± 2.5% and the inhibition at 50 µM was 73.3 ± 12.1%.

`COc1cccc(-c2cccc(C3=NN(C(=O)CCC(=O)O)C(c4ccc5nccnc5c4)C3)c2)c1` (centres unmarked) [Compound 97, 4-(3-(3′-Methoxy-[1,1′-biphenyl]-3-yl)-5-(quinoxalin-6-yl)-4,5-dihydro-1H-pyrazol-1-yl)-4-oxobutanoic acid]: the inhibition at 10 µM was 5.4 ± 0.2% and the inhibition at 50 µM was found to be 76 ± 1.4%. With `O=C(O)CCC(=O)N1N=C(c2cccc(-c3cccc(OC(F)(F)F)c3)c2)CC1c1ccc2nccnc2c1` (centres unmarked) [Compound 98, 4-Oxo-4-(5-(quinoxalin-6-yl)-3-(3′-(trifluoromethoxy)-[1,1′-biphenyl]-3-yl)-4,5-dihydro-1H-pyrazol-1-yl)butanoic acid], the inhibition at 10 µM was 15.6 ± 0.6% and the inhibition at 50 µM was 91 ± 2.7%.

With `COc1ccc(-c2cccc(C3=NN(C(=O)CCC(=O)O)C(c4ccc5nccnc5c4)C3)c2)cc1` (centres unmarked) [Compound 99, 4-(3-(4′-Methoxy-[1,1′-biphenyl]-3-yl)-5-(quinoxalin-6-yl)-4,5-dihydro-1H-pyrazol-1-yl)-4-oxobutanoic acid], the inhibition at 10 µM was less than 5% and the inhibition at 50 µM worked out at 71.8%. With `CC(C)Oc1ccc(-c2ccc(C3=NN(C(=O)CCC(=O)O)C(c4ccc5nccnc5c4)C3)cc2)cc1F` (centres unmarked) [Compound 100, 4-(3-(3′-Fluoro-4′-isopropoxy-[1,1′-biphenyl]-4-yl)-5-(quinoxalin-6-yl)-4,5-dihydro-1H-pyrazol-1-yl)-4-oxobutanoic acid], the inhibition at 2 µM is 25 ± 7.8% and the inhibition at 10 µM was determined as 89.2 ± 3%. On to `O=C(O)CCC(=O)N1N=C(c2ccc(-c3ccc(OC(F)(F)F)cc3F)cc2)CC1c1ccc2nccnc2c1` (centres unmarked) [Compound 101, 4-(3-(2′-Fluoro-4′-(trifluoromethoxy)-[1,1′-biphenyl]-4-yl)-5-(quinoxalin-6-yl)-4,5-dihydro-1H-pyrazol-1-yl)-4-oxobutanoic acid], for which the inhibition at 10 µM was 65.7 ± 2.9%. With `O=C(O)CCC(=O)N1N=C(c2ccc(-c3ccc(OC(F)(F)F)c(Cl)c3)cc2)CC1c1ccc2nccnc2c1` (centres unmarked) [Compound 102, 4-(3-(3′-Chloro-4′-(trifluoromethoxy)-[1,1′-biphenyl]-4-yl)-5-(quinoxalin-6-yl)-4,5-dihydro-1H-pyrazol-1-yl)-4-oxobutanoic acid], the inhibition at 10 µM worked out at 52.8 ± 2.5%. Turning to `O=C(O)CCC(=O)N1N=C(c2ccc(-c3ccc4c(c3)OCO4)cc2)CC1c1ccc2nccnc2c1` (centres unmarked) [Compound 103, 4-(3-(4-(Benzo[d][1,3]dioxol-5-yl)phenyl)-5-(quinoxalin-6-yl)-4,5-dihydro-1H-pyrazol-1-yl)-4-oxobutanoic acid], the inhibition at 10 µM turned out to be 24.8 ± 6.2%.
